# Data taken from PubChem BioAssay AID1918934 (Molecular Pharmacology Branch, DTP, NCI, 2023).
# Test system: 292921-168-R-J2-PDC complex spheroid viability
# Experiment: Anticancer human tumor 292921-168-R-J2-PDC patient-derived pancreatic carcinoma cell line growth inhibition
# Settings: for IC50: curve of first compound; for viability, T/C: stronger effect = lower value
# Outline: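 Complex spheroids of tumor cells with HUVEC and human MSCs, exposed to iadademstat combined with other agents. Each agent tested in half-log steps from near clinical Cmax (else 10 microM top), DMSO ≤0.25%.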
# [1] = second compound 0.1 µM, first compound 0.00949 µM
# [2] = second compound 0.1 µM, first compound 0.03 µM
# [3] = second compound 0.1 µM, first compound 0.0949 µM
# [4] = second compound 0.1 µM, first compound 0.3 µM
# [5] = second compound 0.1 µM, first compound 0.949 µM
# [6] = second compound 0.1 µM, first compound 3 µM
# [7] = second compound 0.316 µM, first compound 0.00949 µM
# [8] = second compound 0.316 µM, first compound 0.03 µM
# [9] = second compound 0.316 µM, first compound 0.0949 µM
# [10] = second compound 0.316 µM, first compound 0.3 µM
# [11] = second compound 0.316 µM, first compound 0.949 µM
# [12] = second compound 0.316 µM, first compound 3 µM
# [13] = second compound 1 µM, first compound 0.00949 µM
# [14] = second compound 1 µM, first compound 0.03 µM
# [15] = second compound 1 µM, first compound 0.0949 µM
# [16] = second compound 1 µM, first compound 0.3 µM
# [17] = second compound 1 µM, first compound 0.949 µM
# [18] = second compound 1 µM, first compound 3 µM
# [19] = second compound 3.16 µM, first compound 0.00949 µM
# [20] = second compound 3.16 µM, first compound 0.03 µM
# [21] = second compound 3.16 µM, first compound 0.0949 µM
# [22] = second compound 3.16 µM, first compound 0.3 µM
# [23] = second compound 3.16 µM, first compound 0.949 µM
# [24] = second compound 3.16 µM, first compound 3 µM
# [25] = second compound 10 µM, first compound 0.00949 µM
# [26] = second compound 10 µM, first compound 0.03 µM
# [27] = second compound 10 µM, first compound 0.0949 µM
# [28] = second compound 10 µM, first compound 0.3 µM
# [29] = second compound 10 µM, first compound 0.949 µM
# [30] = second compound 10 µM, first compound 3 µM
# 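Also: seven day compound exposure before luminescent viability read.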
# 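For viability, T/C in this document: 100% = DMSO vehicle control wells.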
SMILES,IC50 (second compound 0.1 µM) [nM],IC50 (second compound 0.316 µM) [nM],IC50 (second compound 1 µM) [nM],IC50 (second compound 3.16 µM) [nM],IC50 (second compound 10 µM) [nM],"viability, T/C [1] [%]","viability, T/C [2] [%]","viability, T/C [3] [%]","viability, T/C [4] [%]","viability, T/C [5] [%]","viability, T/C [6] [%]","viability, T/C [7] [%]","viability, T/C [8] [%]","viability, T/C [9] [%]","viability, T/C [10] [%]","viability, T/C [11] [%]","viability, T/C [12] [%]","viability, T/C [13] [%]","viability, T/C [14] [%]","viability, T/C [15] [%]",other results
NS(=O)(=O)OCC1CC(n2ccc3c(NC4CCc5ccccc54)ncnc32)CC1O (stereo not given) + NC1CC1c1ccc(-c2cccc(O)c2)cc1,17.4,17.3,17.4,17.9,16.4,87.4,16.4,5.35,2.15,2.62,1.96,86.8,16,5.14,2.21,1.99,2.75,89.1,14.7,4.08,"viability, T/C [16]: 2.39%; viability, T/C [17]: 2.73%; viability, T/C [18]: 2.93%; viability, T/C [19]: 91%; viability, T/C [20]: 16.4%; viability, T/C [21]: 5.76%; viability, T/C [22]: 2.49%; viability, T/C [23]: 3.17%; viability, T/C [24]: 2.38%; viability, T/C [25]: 76.1%; viability, T/C [26]: 21.5%; viability, T/C [27]: 5.5%; viability, T/C [28]: 2.88%; viability, T/C [29]: 2.28%; viability, T/C [30]: 2.43%"
Nc1ccccc1NC(=O)c1ccc(CNC(=O)OCc2cccnc2)cc1 + NC1CC1c1ccc(-c2cccc(O)c2)cc1,29.5,< 9.49,12.4,< 9.49,< 9.49,60.9,49,34.9,19.9,4.91,0.29,48.2,42.1,31.2,19.6,4.68,0.3,53.6,38.6,33.7,"viability, T/C [16]: 18.6%; viability, T/C [17]: 4.33%; viability, T/C [18]: 0.19%; viability, T/C [19]: 47.7%; viability, T/C [20]: 38.8%; viability, T/C [21]: 29.6%; viability, T/C [22]: 18.9%; viability, T/C [23]: 3.78%; viability, T/C [24]: 0.25%; viability, T/C [25]: 41.9%; viability, T/C [26]: 43.8%; viability, T/C [27]: 30.1%; viability, T/C [28]: 19%; viability, T/C [29]: 3.97%; viability, T/C [30]: 0.74%"
O=C(C=Cc1cccc(S(=O)(=O)Nc2ccccc2)c1)NO + NC1CC1c1ccc(-c2cccc(O)c2)cc1,29.8,< 9.49,11.7,11.9,< 9.49,59.3,48.9,34.9,25.2,1.42,0.23,52.5,42.6,38.6,24.9,1.57,0.46,54.4,43.4,40.3,"viability, T/C [16]: 22.8%; viability, T/C [17]: 0.74%; viability, T/C [18]: 0.53%; viability, T/C [19]: 52.1%; viability, T/C [20]: 45.7%; viability, T/C [21]: 35.7%; viability, T/C [22]: 22.8%; viability, T/C [23]: 0.66%; viability, T/C [24]: 0.11%; viability, T/C [25]: 45.2%; viability, T/C [26]: 36.9%; viability, T/C [27]: 31.8%; viability, T/C [28]: 18.7%; viability, T/C [29]: 0.41%; viability, T/C [30]: 0.15%"
